Laboratory results from PubChem BioAssay AID212 (DTP/NCI, 2004).
Several values for one entry are separate records, joined by “and”; a condition that tells them apart may be missing. Equal entries are not always repeated. Inconclusive results are not listed.

Tested on: BDF1 mice, colon carcinoma 38 sc, T/C %
Assay: NCI In Vivo Anticancer Drug Screen. Data for tumor model Colon Carcinoma 38 (subcutaneous) in B6D2F1 (BDF1) mice
Summary of the method: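 T/C readout: treated group (T) measurement over vehicle control group (C) measurement. Endpoint is survival or tumor size in mice bearing a transplanted tumor.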

[1] = endpoint: median tumor weight (est.), dose: 12.5 mg/kg/injection, schedule: Q07DX002 (ip), vehicle: saline, higher = larger tumour
[2] = endpoint: median tumor weight (est.), dose: 50.0 mg/kg/injection, schedule: Q07DX002 (ip), vehicle: saline, higher = larger tumour
[3] = endpoint: median tumor weight (est.), dose: 100.0 mg/kg/injection, schedule: Q07DX002 (ip), vehicle: saline, higher = larger tumour
[4] = endpoint: median tumor weight (est.), dose: 800.0 mg/kg/injection, schedule: Q07DX002 (ip), vehicle: saline, higher = larger tumour
[5] = endpoint: median tumor weight (est.), dose: 1.0 mg/kg/injection, schedule: Q07DX002 (ip), vehicle: water, higher = larger tumour
[6] = endpoint: median tumor weight (est.), dose: 200.0 mg/kg/injection, schedule: Q07DX002 (ip), vehicle: saline, higher = larger tumour

OC(CCl)CN1CC[N+]2(CC1)CC[N+]1(CCN(CC(O)CCl)CC1)CC2 (stereo not drawn)
T/C [1]: 73 % of control
T/C (endpoint: median tumor weight (est.), dose: 12.5 mg/kg/injection, schedule: Q07DX003 (ip), vehicle: saline, higher = larger tumour): 90 % of control
T/C (endpoint: median tumor weight (est.), dose: 25.0 mg/kg/injection, schedule: Q07DX002 (ip), vehicle: saline, higher = larger tumour): 124 % of control
T/C (endpoint: median tumor weight (est.), dose: 25.0 mg/kg/injection, schedule: Q07DX003 (ip), vehicle: saline, higher = larger tumour): 91 % of control
T/C [2]: 90 % of control and 99 % of control
T/C (endpoint: median tumor weight (est.), dose: 50.0 mg/kg/injection, schedule: Q07DX003 (ip), vehicle: saline, higher = larger tumour): 76 % of control
T/C [3]: 60 % of control
T/C (endpoint: median tumor weight (est.), dose: 100.0 mg/kg/injection, schedule: Q07DX003 (ip), vehicle: saline, higher = larger tumour): 57 % of control
T/C (endpoint: median tumor weight (est.), dose: 200.0 mg/kg/injection, schedule: Q07DX003 (ip), vehicle: saline, higher = larger tumour): 54 % of control
T/C (endpoint: median tumor weight (est.), dose: 400.0 mg/kg/injection, schedule: Q07DX003 (ip), vehicle: saline, higher = larger tumour): 44 % of control
T/C [4]: 30 % of control

Nc1ccccc1N
T/C (endpoint: median tumor weight (est.), dose: 12.5 mg/kg/injection, schedule: Q07DX002 (ip), vehicle: Klucel (hydroxypropylcellulose) (HPC), higher = larger tumour): 75 % of control and 91 % of control
T/C (endpoint: median tumor weight (est.), dose: 25.0 mg/kg/injection, schedule: Q07DX002 (ip), vehicle: Klucel (hydroxypropylcellulose) (HPC), higher = larger tumour): 122 % of control and 102 % of control
T/C (endpoint: median tumor weight (est.), dose: 50.0 mg/kg/injection, schedule: Q07DX002 (ip), vehicle: Klucel (hydroxypropylcellulose) (HPC), higher = larger tumour): 91 % of control
T/C (endpoint: median tumor weight (est.), dose: 400.0 mg/kg/injection, schedule: Q07DX002 (ip), vehicle: Klucel (hydroxypropylcellulose) (HPC), higher = larger tumour): 54 % of control

C=C(C)[C@@H]1CC[C@@H]2C(=CC[C@]3(C)C([C@H](C)CC/C=C(/C)C(=O)O)CC[C@@]23C)[C@@]1(C)CCC(=O)O (stereo partly drawn)
T/C (endpoint: median tumor weight (est.), dose: 50.0 mg/kg/injection, schedule: Q07DX002 (ip), vehicle: saline + alcohol, higher = larger tumour): 90 % of control
T/C (endpoint: median tumor weight (est.), dose: 100.0 mg/kg/injection, schedule: Q07DX002 (ip), vehicle: saline + alcohol, higher = larger tumour): 91 % of control
T/C (endpoint: median tumor weight (est.), dose: 200.0 mg/kg/injection, schedule: Q07DX002 (ip), vehicle: saline + alcohol, higher = larger tumour): 105 % of control
T/C (endpoint: median tumor weight (est.), dose: 400.0 mg/kg/injection, schedule: Q07DX002 (ip), vehicle: saline + alcohol, higher = larger tumour): 45 % of control

CC1OC(OC2CC(O)(C(=O)CO)Cc3c(O)c4c(c(O)c32)C(=O)c2ccccc2C4=O)CC(N)C1O (stereo not drawn)
T/C (endpoint: median survival time, dose: 1.2 mg/kg/injection, schedule: Q07DX003 (iv), vehicle: saline, higher = longer survival): 108 % of control
T/C (endpoint: median survival time, dose: 1.9 mg/kg/injection, schedule: Q07DX003 (iv), vehicle: saline, higher = longer survival): 111 % of control
T/C (endpoint: median tumor weight (est.), dose: 0.12 mg/kg/injection, schedule: Q07DX002 (ip), vehicle: water, higher = larger tumour): 120 % of control
T/C (endpoint: median tumor weight (est.), dose: 0.25 mg/kg/injection, schedule: Q07DX002 (ip), vehicle: saline, higher = larger tumour): 113 % of control
T/C (endpoint: median tumor weight (est.), dose: 0.25 mg/kg/injection, schedule: Q07DX002 (ip), vehicle: water, higher = larger tumour): 90 % of control
T/C (endpoint: median tumor weight (est.), dose: 0.5 mg/kg/injection, schedule: Q07DX002 (ip), vehicle: saline, higher = larger tumour): 104 % of control
T/C (endpoint: median tumor weight (est.), dose: 0.5 mg/kg/injection, schedule: Q07DX002 (ip), vehicle: water, higher = larger tumour): 78 % of control
T/C (endpoint: median tumor weight (est.), dose: 1.0 mg/kg/injection, schedule: Q07DX002 (ip), vehicle: saline, higher = larger tumour): 69 % of control
T/C [5]: 23 % of control
T/C (endpoint: median tumor weight (est.), dose: 2.0 mg/kg/injection, schedule: Q07DX002 (ip), vehicle: saline, higher = larger tumour): 72 % of control

CCCCCC[C@@H](O)C/C=C\CCCCCCCC(=O)OCCO
T/C [2]: 113 % of control
T/C [3]: 72 % of control
T/C [6]: 113 % of control
T/C (endpoint: median tumor weight (est.), dose: 400.0 mg/kg/injection, schedule: Q07DX002 (ip), vehicle: saline, higher = larger tumour): 117 % of control
T/C [4]: 74 % of control
T/C (endpoint: median tumor weight (est.), dose: 1600.0 mg/kg/injection, schedule: Q07DX002 (ip), vehicle: saline, higher = larger tumour): 85 % of control

CC1=CC2C(O)(CC(CO)=CC3C4C(C)(C)C4(OC(=O)c4ccccc4)C(OC(=O)c4ccccc4)C(C)C32O)C1=O (stereo not drawn)
T/C (endpoint: median tumor weight (est.), dose: 0.5 mg/kg/injection, schedule: Q07DX002 (ip), vehicle: saline with Tween-80, higher = larger tumour): 156 % of control
T/C (endpoint: median tumor weight (est.), dose: 2.0 mg/kg/injection, schedule: Q07DX002 (ip), vehicle: saline with Tween-80, higher = larger tumour): 167 % of control

O=C[C@@H](CO)O[C@H](C=O)c1c[nH]c(=O)[nH]c1=O
T/C [1]: 121 % of control
T/C [2]: 83 % of control
T/C [3]: 121 % of control
T/C [6]: 57 % of control

NC(Cc1ccc(N(CCCl)CCCl)cc1)C(=O)O (stereo not drawn)
T/C (endpoint: median tumor weight (est.), dose: 1.0 mg/kg/injection, schedule: Q07DX002 (ip), vehicle: Klucel (hydroxypropylcellulose) (HPC), higher = larger tumour): 71 % of control
T/C [5]: 84 % of control
T/C (endpoint: median tumor weight (est.), dose: 2.0 mg/kg/injection, schedule: Q07DX002 (ip), vehicle: water, higher = larger tumour): 97 % of control
T/C (endpoint: median tumor weight (est.), dose: 4.0 mg/kg/injection, schedule: Q07DX002 (ip), vehicle: water, higher = larger tumour): 59 % of control
T/C (endpoint: median tumor weight (est.), dose: 8.0 mg/kg/injection, schedule: Q07DX002 (ip), vehicle: Klucel (hydroxypropylcellulose) (HPC), higher = larger tumour): 47 % of control and 51 % of control and 53 % of control
T/C (endpoint: median tumor weight (est.), dose: 8.0 mg/kg/injection, schedule: Q07DX002 (ip), vehicle: water, higher = larger tumour): 37 % of control
T/C (endpoint: median tumor weight (est.), dose: 16.0 mg/kg/injection, schedule: Q07DX002 (ip), vehicle: Klucel (hydroxypropylcellulose) (HPC), higher = larger tumour): 9 % of control and 14 % of control
